pIC50: −log10 of the molar value. One block for each compound: values may come before it.
How the values were obtained:
Human DNA-PK = molecular target: T1, Human DNA-PK (Homo sapiens, UniProt P78527); assay: DNA-dependent protein kinase (DNA-PK) inhibitory activity screening assay (Eurofins, HTRF); assay type: biochemical; conditions: ATP: 10 μM, 50 nM GST-cMyc-p53
T1 construct: purchased Eurofins (Eurofins Pharma Discovery Service; outsourced assay)
Protocol: This experiment was tested in the Eurofins
Human DNA-PK; Mg/ATP; GST-cMyc-p53; EDTA; Ser15 antibody; ATP: 10 μM.
DNA-PK(h) was incubated in assay buffer containing 50 nM GST-cMyc-p53 and Mg/ATP (according to the required concentration). The reaction was initiated by adding the Mg/ATP mixture. After incubation at room temperature for 30 minutes, the reaction was stopped by adding a stop solution containing EDTA. Finally, detection buffer (containing labeled anti-GST monoclonal antibody and europium-labeled anti-phospho Ser15 antibody against phosphorylated p53) was added. The plate was then read in time-resolved fluorescence mode, and the homogeneous time-resolved fluorescence (HTRF) signal was determined according to the formula HTRF=10000×(Em665 nm/Em620 nm).

[1] = Pharmacokinetic evaluation in rat plasma after oral administration; assay type: in vivo; conditions: 30 mg/kg, SD male rats
Protocol: The test compound was mixed with 0.5% CMC-Na+0.2% (V:V) Tween80 aqueous solution, vortexed, and sonicated to prepare a 3 mg/mL homogeneous suspension. SD male rats were selected, and orally administered with the candidate compound solution at a dose of 30 mg/kg. Whole blood was collected for a certain period of time and prepared into plasma. The drug concentration was analyzed by the LC-MS/MS method, and the pharmacokinetic parameters were calculated using Phoenix WinNonlin software (Pharsight, USA).
Cmax: highest plasma drug concentration after administration; Tmax: time required to reach the peak concentration after administration; T1/2: time required for the plasma drug concentration to decrease by half; Tlast: time at the last detection point; AUC0-last: area under the drug-time curve, which refers to the area enclosed by the plasma drug concentration curve and the time axis.

[2] = tested on: human lung cancer NCI-H1703 xenograft tumor; assay: In vivo pharmacodynamic study, NCI-H1703 subcutaneous xenograft tumor model; design: species or system female BALB/c nude mice; conditions: for Tumor volume (Day 0): Day 0, Mean ± SEM; for Tumor volume (Day 0) / Tumor volume (Day 21) / Tumor weight (Day 21): n = 9; for RTV (Day 21) / T/C (%) (Day 21) / T/Cweight (%) / TGI (%) (Day 21): Day 21; for Tumor volume (Day 21) / Tumor weight (Day 21): Day 21, Mean ± SEM
Protocol: Experimental purpose: To study the in vivo pharmacodynamics of the test compound in the BALB/c nude mouse model with subcutaneous xenograft tumor of human […] NCI-H1703 cells.
Experimental animals: Experimental animals: female BALB/c nude mice, 6 to 8 weeks of age, weighing 18 to 22 grams; supplier: Shanghai Sippr-BK Lab.Animal Co.Ltd.
Human non-small cell lung cancer NCI-H1703 cells were cultured in vitro in RPMI1640 medium with 10% fetal bovine serum, 100 U/mL penicillin, and 100 μg/mL streptomycin, and cultured at 37° C. in a 5% CO2 incubator. Conventional digestion with trypsin-EDTA was performed twice a week for passaging. When the cell saturation was 80% to 90% and the number of cells reached the requirement, and the cells were collected, counted, and seeded.
0.2 mL (5×10^6) NCI-H1703 cells (added with Matrigel, volume ratio of 1:1) were subcutaneously inoculated on the right back of each mouse, and the administration in groups began when the average tumor volume reached about 130 mm^3.
The compound of formula (I) was prepared into 3 mg/mL, 6 mg/mL, and 9 mg/mL suspension solutions with 98.5% water+0.5% HPMC+1% Tween 80.
Tumor diameters were measured with a vernier caliper twice a week. The formula for calculating tumor volume is: V=0.5a×b^2, wherein a and b represent the long and short diameters of the tumor, respectively. The relative tumor volume (RTV) was calculated based on the results of tumor measurement. The calculation formula is RTV=Vt/V0, wherein V0 is the tumor volume measured at the time of group administration (i.e., day 0), and Vt is the tumor volume at one measurement. Data of the same day was taken for TRTV and CRTV.
The tumor inhibitory effect of the compound was evaluated by TGI (%, reflecting the tumor growth inhibition rate) or relative tumor proliferation rate T/C (%):
T/C (%)=TRTV/CRTV×100%, TRTV represents the average RTV of the treatment group, and CRTV represents the average RTV of the negative control group.
TGI (%)=[1−(average tumor volume at the end of administration in a certain treatment group−average tumor volume at the beginning of administration in this treatment group)/(average tumor volume at the end of treatment in the vehicle control group−average tumor volume at the beginning of treatment in the vehicle control group)]×100%.
After the experiment, the tumor weight (TW) was detected and T/Cweight (%) was calculated. The calculation formula is: T/Cweight (%)=TWtreatment/TWvehicle×100%. TWtreatment and TWvehicle represent the tumor weights of the administration group and vehicle control group, respectively.
Statistical analysis was performed using SPSS software based on RTV data at the end of the experiment. […] T-test was used to analyze the comparison between two groups, and one-way ANOVA was used to analyze the comparisons between three or more groups. If the variance was homogeneous (F value had no significant difference), Tukey's method is used for analysis; if the variance was not homogeneous (F value had significant difference), and the Games-Howell method was used for testing. p<0.05 was considered a significant difference.

[3] = Solid-state stability test of crystal form B (XRPD and HPLC purity); assay type: physicochemical
Protocol: Based on the “Guideline for Stability Testing of Pharmaceutical Ingredients and Formulations” (Chinese Pharmacopoeia 2020 Edition, General Rule 9001), in order to evaluate the solid-state stability of the crystal form B of the compound of formula (II-1), the solid-state stability of the crystal form B was investigated in terms of the influencing factors (high temperature, high humidity, and light) and the conditions of 60° C./75% RH and 40° C./75% RH. The crystal form B was placed at high temperature (60° C., open) and high humidity (25° C./92.5° RH, open) for 10 days respectively, and then placed open under visible and UV light (samples of the shaded control group were placed at the same time and wrapped in tin foil) according to the ICH conditions (total illuminance up to 1,200,000 Lux hrs in visible and 200 W hrs/m^2 in UV), for 1, 2, and 3 months at 60° C./75% RH (open), and for 1, 2, and 3 months at 40° C./75% RH (open).
About 10 mg of this crystal form was accurately weighed and placed in a dry and clean glass vial, spread into a thin layer, and left open under the test conditions of the influence factors and the accelerated conditions. Samples placed under light conditions (visible light 1200000 Lux hrs, UV 200 W hrs/m^2) were in a clear glass vial with full exposure, and samples for XRPD test were placed separately.
After the sample was taken out at the time point, it was covered, sealed with a sealing film, and stored in a −20° C. refrigerator. When preparing the sample, the sample was taken out of the refrigerator and warmed to room temperature, and dissolved with 25 mL of diluent (acetonitrile/water, 1:1, v/v) to obtain a solution with a concentration of approximately 0.5 mg/mL. The solution was analyzed using the liquid chromatography, and the results of the test were compared with the initial test results on day 0.
Preparation of standard solution on day 0: About 12.5 mg of this crystal form was weighed and placed in a 25 mL volumetric flask, dissolved with […], and diluted to the mark.
At the same time, HPLC tests were performed on all stability samples.

[4] = Hygroscopicity study by dynamic vapor sorption (DVS); assay type: physicochemical; conditions: 25° C. and 80% RH
Protocol: Instrument model: SMS DVS intrinsic dynamic moisture sorption analyzer
Test conditions: a sample (about 10 mg) is taken and placed in the DVS sample tray for testing.
The detailed DVS parameters are as follows:
Equilibrium: dm/dt=0.01%/min
RH (%) test increment: 5% RH
RH (%) test increment range: 0% to 95% to 0%
The evaluation and classifications of hygroscopicity are shown as follows:
Sufficient moisture is absorbed to produce a fluid: Deliquescence; ΔW %≥15%: High hygroscopicity; 15%>ΔW %≥2%: Hygroscopicity; 2%>ΔW %≥0.2%: Slight hygroscopicity; ΔW %<0.2%: No hygroscopicity or almost no hygroscopicity: ΔW % indicates hygroscopic weight gain of the sample at 25±1° C. and 80±2% RH.
The crystal form B of the compound of formula (II-1) (about 10 mg) was taken and placed in the DVS sample tray for testing.

SMILES: Cc1cc2ncnn2cc1Nc1ncc2c(n1)n(N1CC3CCC(C1)O3)c(=O)n2C [Compound of formula (I)]
Tumor volume (Day 0) ([2]; 30 mg/kg): 131 ± 10 mm^3
RTV (Day 21) ([2]; 30 mg/kg): 7.57 ± 0.53
T/C (%) (Day 21) ([2]; 30 mg/kg): 79.3%
T/Cweight (%) ([2]; 30 mg/kg): 79.6%
TGI (%) (Day 21) ([2]; 30 mg/kg): 20.6%
Tumor volume (Day 21) ([2]; 30 mg/kg): 979 ± 86 mm^3
Tumor weight (Day 21) ([2]; 30 mg/kg): 1.031 ± 0.095 g
Tumor volume (Day 0) ([2]; 60 mg/kg): 131 ± 10 mm^3
RTV (Day 21) ([2]; 60 mg/kg): 3.31 ± 0.51
T/C (%) (Day 21) ([2]; 60 mg/kg): 34.7%
T/Cweight (%) ([2]; 60 mg/kg): 36.0%
TGI (%) (Day 21) ([2]; 60 mg/kg): 72.3%
Tumor volume (Day 21) ([2]; 60 mg/kg): 427 ± 64 mm^3
Tumor weight (Day 21) ([2]; 60 mg/kg): 0.467 ± 0.078 g
Tumor volume (Day 0) ([2]; 90 mg/kg): 130 ± 10 mm^3
RTV (Day 21) ([2]; 90 mg/kg): 2.64 ± 0.45
T/C (%) (Day 21) ([2]; 90 mg/kg): 27.7%
T/Cweight (%) ([2]; 90 mg/kg): 29.2%
TGI (%) (Day 21) ([2]; 90 mg/kg): 79.4%
Tumor volume (Day 21) ([2]; 90 mg/kg): 351 ± 64 mm^3
Tumor weight (Day 21) ([2]; 90 mg/kg): 0.379 ± 0.069 g

SMILES: Cc1cc2ncnn2cc1Nc1ncc2c(n1)n(N1CC3CCC(C1)O3)c(=O)n2C [Crystal form A of the compound of formula (I)]
AUC0-last [1]: 83.483 µM·h
Cmax [1]: 14.6 µM
T1/2 [1]: 1.59 h
Tmax [1]: 0.67 h

SMILES: Cc1cc2ncnn2cc1Nc1ncc2c(n1)n(N1CC3CCC(C1)O3)c(=O)n2C [Crystal form B of the compound of formula (II-1)]
Purity (area %) ([3]; 0 days (initial)): 99.70 area %
Purity (area %) ([3]; 40° C., relative humidity of 75%, open, one month): 99.77 area %
Purity (area %) ([3]; 40° C., relative humidity of 75%, open, three months): 99.72 area %
Purity (area %) ([3]; 40° C., relative humidity of 75%, open, two months): 99.76 area %
Purity (area %) ([3]; 60° C., relative humidity of 75%, open, one month): 99.76 area %
Purity (area %) ([3]; 60° C., relative humidity of 75%, open, three months): 99.73 area %
Purity (area %) ([3]; 60° C., relative humidity of 75%, open, two months): 99.73 area %
Purity (area %) ([3]; High humidity (25° C., relative humidity of 92.5%, open), 10 days): 99.75 area %
Purity (area %) ([3]; High temperature (60° C., open), 10 days): 99.71 area %
Purity (area %) ([3]; Shaded control group, wrapped with tin foil, placed with visible light + UV): 99.75 area %
Purity (area %) ([3]; Visible light + UV (ICH conditions), 1,200,000 Lux·hrs, 200 W·hrs/m^2): 99.77 area %
Hygroscopicity classification [4]: slightly hygroscopic
T1/2 [1]: 4.07 h
Tmax [1]: 1.33 h

Continued, values first:

pIC50 (Human DNA-PK): 9.22
AUC(0-t) ([1]; male, SD, rat, po): 87.4 µM·h
Cmax ([1]; male, SD, rat, po): 11.1 µM
SMILES: Cc1cc2ncnn2cc1Nc1ncc2c(n1)n(N1CC3CCC(C1)O3)c(=O)n2C

AUC0-last [1]: 127.313 µM·h
Cmax [1]: 21.7 µM
T1/2 [1]: 2.42 h
Tlast [1]: 32.0 h
Tmax [1]: 1.50 h
SMILES: Cc1cc2ncnn2cc1Nc1ncc2c(n1)n(N1CC3CCC(C1)O3)c(=O)n2C [Crystal form K of the compound of formula (VIII-1)]
